Measured values reported in patent US12171230B2, “Herbicidal compositions” (Bayer Aktiengesellschaft, priority 2018, dated 2024).
Several values for one entry are separate records, joined by “and”; a condition that tells them apart may be missing. Equal entries are not always repeated.

How the values were obtained:
Assay type in all cases: in vivo
Brachiaria platyphylla = test: Post-emergence herbicidal action against Brachiaria platyphylla; conditions: 21 DAT
Procedure: (§1) When the observed efficacies exceed the formal sum total of the values of the tests with individual applications, they also exceed the expected value according to Colby, which is calculated using the formula below and is likewise regarded as an indication of synergism (cf. S. R. Colby; in Weeds 15 (1967) p. 20 to 22): E^C=A+B−([…])
(§2) Here: • A=efficacy of the active compound (A) in % at an application rate of a g a.i./ha; • B=efficacy of the active compound (B) in % at an application rate of b g a.i./ha; • E^C=expected value of the effect of the combination (A)+(B) in % at the combined application rate a+b g a.i./ha.
(§3) Seeds or rhizome pieces of mono- and dicotyledonous weeds are placed in sandy loam in pots, covered with soil and grown in a greenhouse under good growth conditions (temperature, air humidity, water supply). Three weeks after sowing, the test plants were treated at the three-leaf stage with the compositions according to the invention. The compositions according to the invention formulated as spray powders or as emulsion concentrates were sprayed onto the green plant parts in various dosages with an application rate of 300 to 800 l/ha of water (equivalent). After the test plants have been left to stand in the greenhouse under optimal growth conditions for about 3 to 4 weeks, the action of the preparations is scored visually in comparison to untreated controls. The compositions according to the invention also have good post-emergence herbicidal activity against a broad spectrum of economically important gramineous and broadleaf weeds.

Poa annua = test: Post-emergence herbicidal action against Poa annua; conditions: 28 DAT
Outline: (§4)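 Seeds or rhizome pieces were grown in sandy loam in pots in a greenhouse, and plants were sprayed at the three-leaf stage, three weeks after sowing. Spray powders or emulsion concentrates were applied in various dosages at 300 to 800 l/ha water. Efficacy was scored visually after 3 to 4 weeks against untreated controls.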

Setaria viridis = test: Post-emergence herbicidal action against Setaria viridis; conditions: 21 DAT
Procedure: as §1, §2, §3

Lolium rigidum = test: Post-emergence herbicidal action against Lolium rigidum; conditions: 28 DAT; resistant biotype; 50 g a.i./ha
Bromus sterilis = test: Post-emergence herbicidal action against Bromus sterilis; conditions: 28 DAT; 150 g a.i./ha
Sorghum halepense = test: Post-emergence herbicidal action against Sorghum halepense; conditions: 21 DAT
Procedure: as §1, §2, §3

Bidens pilosa = test: Post-emergence herbicidal action against Bidens pilosa; conditions: for Herbicidal action: 21 DAT; for Herbicidal action 21 DAT [%] against Bidens pilosa: block with (B1.7) Mesotrione
Outline: as §4

Echinochloa crus-galli = test: Post-emergence herbicidal action against Echinochloa crus-galli
Procedure: as §1, §2, §3

Centaurea cyano = test: Post-emergence herbicidal action against Centaurea cyano; conditions: 150 g a.i./ha
Outline: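 Formulations (spray powders or emulsion concentrates) applied at various doses onto foliage using 300 to 800 l/ha water; plants treated at three-leaf stage, three weeks post-sowing in sandy loam under greenhouse conditions.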

Pharbitis purpurea = test: Post-emergence herbicidal action against Pharbitis purpurea; conditions: 21 DAT; 50 g a.i./ha
Procedure: as §1, §2, §3

Polygonum convolvulus [1] = test: Post-emergence herbicidal action against Polygonum convolvulus; conditions: 21 DAT
Kochia scoparia = test: Post-emergence herbicidal action against Kochia scoparia; conditions: 21 DAT
Amaranthus palmeri = test: Post-emergence herbicidal action against Amaranthus palmeri; conditions: for Herbicidal action: 21 DAT
Outline: as §4

Digitaria sanguinalis = test: Post-emergence herbicidal action against Digitaria sanguinalis; conditions: 21 DAT
Outline: as §4

Eleusine indica [2] = test: Post-emergence herbicidal action against Eleusine indica; conditions: 21 DAT
Polygonum convolvulus [3] = test: Post-emergence herbicidal action against Polygonum convolvulus; conditions: g of a.i./ha: 90, 30, 45, 45 + 90, 45 + 30
From the text: (§5) The following abbreviations are used in the description and the tables that follow: • g of a.i./ha=grams of active substance (active ingredient) (=100% active compound) per hectare; • The sum total of the effects of the individual applications is reported under E^A; • expected values according to Colby are each reported under E^C.
(§6) The rating period is reported in days after application (DAT).

Eleusine indica [4] = test: Post-emergence herbicidal action against Eleusine indica; conditions: (Z3) post-emergence, g of a.i./ha: 270, 90, 15, 5, 5 + 270, 15 + 90
From the text: as §5, §6

Bellis perenne = test: Post-emergence herbicidal action against Bellis perenne; conditions: 105 g of a.i./ha
Procedure: as §1, §2
as §3, with “The compositions according to the invention also have good post-emergence herbicidal activity against a broad spectrum of economically important gramineous and broadleaf weeds.” left out

Ephilobium hirsutum = test: Post-emergence herbicidal action against Ephilobium hirsutum; conditions: 105 g of a.i./ha
Procedure: as §1, §2
as §3, with “The compositions according to the invention also have good post-emergence herbicidal activity against a broad spectrum of economically important gramineous and broadleaf weeds.” left out

Viola arvensis = test: Post-emergence herbicidal action against Viola arvensis; conditions: 105 g of a.i./ha
Procedure: as §1, §2
as §3, with “After the test plants have been left to stand in the greenhouse under optimal growth conditions for about 3 to 4 weeks, the action of the preparations is scored visually in comparison to untreated controls.” left out

Panicum maximum = test: Post-emergence herbicidal action against Panicum maximum; conditions: 75 g of a.i./ha
Procedure: as §1, §2, §3

Ranunculus repens = test: Post-emergence herbicidal action against Ranunculus repens; conditions: 105 g of a.i./ha
Procedure: as §1, §2
as §3, with “After the test plants have been left to stand in the greenhouse under optimal growth conditions for about 3 to 4 weeks, the action of the preparations is scored visually in comparison to untreated controls.” left out

Lamium purpureum = test: Post-emergence herbicidal action against Lamium purpureum; conditions: 105 g of a.i./ha, post-emergence
Outline: as §4

Ipomoea hederacea = test: Post-emergence herbicidal action against Ipomoea hederacea; conditions: 35 g of a.i./ha
Procedure: as §1, §2, §3

## CP(=O)(O)CCC(N)C(=O)O (stereo not shown) [(B7.4) Glufosinate]
Brachiaria platyphylla; 150 g a.i./ha
  Herbicidal action: 70%
Poa annua; 50 g a.i./ha
  Herbicidal action: 20%
Poa annua; 150 g a.i./ha
  Herbicidal action: 30%
Setaria viridis; 50 g a.i./ha
  Herbicidal action: 40% and 20%
Lolium rigidum
  Herbicidal action: 10%
Bromus sterilis
  Herbicidal action: 10%
Sorghum halepense; 50 g a.i./ha
  Herbicidal action: 20%
Sorghum halepense; 450 g a.i./ha
  Herbicidal action: 5%
Bidens pilosa; 50 g a.i./ha
  Herbicidal action: 30%
Bidens pilosa; 150 g a.i./ha
  Herbicidal action: 75%
Bidens pilosa; 450 g a.i./ha
  Herbicidal action: 75% and 90%
Echinochloa crus-galli; 21 DAT, 150 g a.i./ha
  Herbicidal action: 65%
Centaurea cyano; 14 DAT
  Herbicidal action: 60%
Centaurea cyano; 28 DAT
  Herbicidal action: 30%
Pharbitis purpurea
  Herbicidal action: 20%
Polygonum convolvulus [1]; 50 g a.i./ha
  Herbicidal action: 10%
Polygonum convolvulus [1]; 150 g a.i./ha
  Herbicidal action: 20%
Kochia scoparia; 50 g a.i./ha
  Herbicidal action: 20%
Kochia scoparia; 450 g a.i./ha
  Herbicidal action: 80%
Amaranthus palmeri; 50 g a.i./ha
  Herbicidal action: 50%
Amaranthus palmeri; (res.), 50 g a.i./ha
  Herbicidal action: 35%
Amaranthus palmeri; (res.), 150 g a.i./ha
  Herbicidal action: 70%
Digitaria sanguinalis; 450 g a.i./ha
  Herbicidal action: 85%
Eleusine indica [2]; 50 g a.i./ha
  Herbicidal action: 15%
Eleusine indica [2]; 150 g a.i./ha
  Herbicidal action: 35% and 40%
Eleusine indica [2]; 450 g a.i./ha
  Herbicidal action: 60%

## COC(=O)[C@H]1C[C@@H](NC(=O)C2(OC)CC(c3cc(Cl)cc(Cl)c3)=NO2)CO1 (relative stereo) [Compound A1, methyl rel-(2R,4R)-4-[[3-(3,5-dichlorophenyl)-5-methoxy-4H-isoxazole-5-carbonyl]amino]tetrahydrofuran-2-carboxylate]
Brachiaria platyphylla; 1.7 g a.i./ha
  Herbicidal action: 50%
Setaria viridis; 1.7 g a.i./ha
  Herbicidal action: 15%
Sorghum halepense; 1.7 g a.i./ha
  Herbicidal action: 10%
Sorghum halepense; 15 g a.i./ha
  Herbicidal action: 35%
Polygonum convolvulus [3]
  Herbicidal action 21 DAT against Polygonum convolvulus: 85%
Bidens pilosa; 15 g a.i./ha
  Herbicidal action: 35%
Bidens pilosa; post-emergence, g of a.i./ha: 90, 30, 15, 15 + 90, 15 + 30
  Herbicidal action 21 DAT against Bidens pilosa: 35%
Echinochloa crus-galli; (Z3) post-emergence, g of a.i./ha: 270, 30, 5, 5 + 270, 5 + 30
  Herbicidal action 21 DAT against Echinochloa crus-galli: 10%
Eleusine indica [4]; 5 g of a.i./ha
  Herbicidal action 21 DAT against Eleusine indica: 45%
Eleusine indica [4]; 15 g of a.i./ha
  Herbicidal action 21 DAT against Eleusine indica: 70%
Polygonum convolvulus [1]; 5 g a.i./ha
  Herbicidal action: 85%
Polygonum convolvulus [1]; 45 g a.i./ha
  Herbicidal action: 85%
Kochia scoparia; 5 g a.i./ha
  Herbicidal action: 20%
Kochia scoparia; 15 g a.i./ha
  Herbicidal action: 45%
Amaranthus palmeri; (res.), 5 g a.i./ha
  Herbicidal action: 10%
Amaranthus palmeri; (res.), 15 g a.i./ha
  Herbicidal action: 10%
Amaranthus palmeri; (res.), 45 g a.i./ha
  Herbicidal action: 40%
Digitaria sanguinalis; 1.7 g a.i./ha
  Herbicidal action: 20%
Eleusine indica [2]; 1.7 g a.i./ha
  Herbicidal action: 20%

## CS(=O)(=O)c1ccc(C(=O)C2C(=O)CCCC2=O)c([N+](=O)[O-])c1 [(B1.7) Mesotrione, mesotrione, reference compound]
Bellis perenne
  Herbicidal action 43 DAT [%] against Bellis perenne: 0%
Ephilobium hirsutum
  Herbicidal action 43 DAT [%] against Ephilobium hirsutum: 0%
Viola arvensis
  Herbicidal action 43 DAT [%] against Viola arvensis: 0%
Panicum maximum
  Herbicidal action 28 DAT [%] against Panicum maximum: 0%
Bidens pilosa; 5 g of a.i./ha, post-emergence
  Herbicidal action 21 DAT [%] against Bidens pilosa: 0%
Bidens pilosa; 45 g of a.i./ha, post-emergence
  Herbicidal action 21 DAT [%] against Bidens pilosa: 25%
Ranunculus repens
  Herbicidal action 43 DAT [%] against Ranunculus repens: 0%
Amaranthus palmeri; Amaranthus palmeri, post-emergence, 504 h, 5 g of a.i./ha, post-emergence, block with (B1.7) Mesotrione, read-out: Herbicidal action 21 DAT [%] against Amaranthus palmeri
  pest or weed control at 5 g/ha: 0%
Lamium purpureum
  Herbicidal action 32 DAT [%] against Lamium purpureum: 0%

## CCS(=O)(=O)c1cccnc1S(=O)(=O)NC(=O)Nc1nc(OC)cc(OC)n1 [(B2.63) Rimsulfuron]
Ipomoea hederacea
  Herbicidal action 37 DAT against Ipomoea hederacea: 0%
